From patent US20240010655A1, “DIHYDROIMIDAZO PYRIMIDO PYRIMIDINONE COMPOUND” (priority 2019, published 2024)

Experiments:
[1] = test system: advanced solid tumors; conditions: cited from earlier work
[2] = test system: LoVo cell; assay: Inhibition of proliferation of LoVo cell, CCK-8 method; format: cell-based; conditions: Homo sapiens, 72 h, CCK-8, 3 days, read-out: IC50, inhibitory effect on the proliferation of LoVo cell
Description: Determination of the Inhibitory Effect of Compounds on the Proliferation of LoVo Cell Using CCK-8 Method
(§1) The cells were digested by trypsinase and centrifuged at 800 rpm for 5 minutes, the supernatant was discarded, and the residual was resuspended with fresh medium and counted. The cells were seeded into 96-well cell culture plate with a density of 6000 cells per well and incubated overnight in a 5% C02 incubator at 37° C. The stock solutions of test compounds were serially diluted to 8 concentrations by DMSO at the ratios of 1:3 and 1:10, respectively. The final concentration of compound was: 10 μM, 3.3 μM, 1 μM, 0.33 μM, 0.1 μM, 0.033 μM, 0.01 μM and 0 μM. 5 μL diluent of each concentration was added to 120 μL of medium (25 times diluted) and mixed by shaking. The overnight cell plates were taken and the culture medium was removed, 195 μL of fresh medium was added to each well, and 5 μL of diluted medium containing the corresponding concentration of the test compound was added respectively (the final concentration of DMSO is 1‰), and the culture plate was then placed in a 5% CO2 incubator at 37° C. for 3 days. After removing the original solution, 90 μL of fresh serum-free 1640 medium was added, then 10 μL of CCK-8 reagent was added to each well and continued incubation for 2 hours. The 96-well plates were placed in a multi-function reader to read the absorbance at the wavelength of 450/650 nm. Cell viability (%)=(ODcompound−ODbackground)/(ODDMSO−ODbackground)×100. GraphPad Prism 5.0 was used to analyze the data. The inhibitory activity of compounds on cell proliferation was plotted based on cell viability and the logarithm of compound concentration. The IC50 value was fitted by a sigmoidal dose response curve equation Y=100/(1+10^(Log C−Log IC50)), wherein C was the concentration of compound.
Table 2 summarizes the inhibitory effect data (IC50) of compounds on the proliferation of LoVo cell

[3] = test system: NCI-H1299 cell; assay: Inhibition of proliferation of NCI-H1299 cell, CCK-8 method; format: cell-based; conditions: Homo sapiens, NCI-H1299, 72 h; CCK-8, 3 days; read-out: IC50, inhibitory effect on the proliferation of NCI-H1299 cell
Description: Determination of the Inhibitory Effect of Compounds on the Proliferation of NCI-H1299 Cell Using CCK-8 Method
as §1, with “1000” for “6000”, “CO2” for “C02”
Table 3 summarizes the inhibitory effect data (IC50) of compounds on the proliferation of NCI-H1299 cell.

[4] = molecular target: Wee1 (h) (Homo sapiens, UniProt P30291); assay: Wee1(h) kinase activity experiment ([γ-33P]-ATP, filtermat, scintillation counting); format: biochemical; conditions: 10 μM ATP, 40 minutes at room temperature; read-out: IC50, inhibitory effect on Wee1 kinase activity
Description: Determination of the Inhibitory Effect of Compounds on Wee1 Kinase Using Wee1(h) Kinase Activity Experiment
Wee1 (h) is incubated with 20 mM Tris/HCl pH 8.5, 0.2 mM EDTA, 500 μM […], 10 mM MgAcetate and 10 μM [γ-^33P]-ATP. Then 50 times the concentration of the testing compound in 100% DMSO was added until the final concentration was 10 μM, then mixed, and diluted to 10 concentrations in successive series according to the ratio of 1:3 and 1:10 respectively (the last concentration was DMSO negative control): 10 μM, 3 μM, 1 μM, 0.3 μM, 0.1 μM, 0.03 μM, 0.01 μM, 0.003 μM, 0.001 μM, 0 μM. The reaction is initiated by the addition of the Mg/ATP mix. After incubation for 40 minutes at room temperature, the reaction is stopped by the addition of phosphoric acid to a concentration of 0.5%. 10 μL of the reaction liquor is then spotted onto a P30 filtermat and washed four times in 0.425% phosphoric acid and once in methanol prior to drying and scintillation counting. Each compound sample is duplicated in duplicate. The negative control was the components except of Wee1 enzyme, and the positive control was the components of adding 30% phosphoric acid to terminate the reaction. Table 1 summarizes the inhibitory effects of compounds on Wee1 kinase activity (IC50).

[5] = 176 evaluable patients, AZD1775 alone or in combination with chemotherapy

Wee1 (h), sequence (P30291 whole entry): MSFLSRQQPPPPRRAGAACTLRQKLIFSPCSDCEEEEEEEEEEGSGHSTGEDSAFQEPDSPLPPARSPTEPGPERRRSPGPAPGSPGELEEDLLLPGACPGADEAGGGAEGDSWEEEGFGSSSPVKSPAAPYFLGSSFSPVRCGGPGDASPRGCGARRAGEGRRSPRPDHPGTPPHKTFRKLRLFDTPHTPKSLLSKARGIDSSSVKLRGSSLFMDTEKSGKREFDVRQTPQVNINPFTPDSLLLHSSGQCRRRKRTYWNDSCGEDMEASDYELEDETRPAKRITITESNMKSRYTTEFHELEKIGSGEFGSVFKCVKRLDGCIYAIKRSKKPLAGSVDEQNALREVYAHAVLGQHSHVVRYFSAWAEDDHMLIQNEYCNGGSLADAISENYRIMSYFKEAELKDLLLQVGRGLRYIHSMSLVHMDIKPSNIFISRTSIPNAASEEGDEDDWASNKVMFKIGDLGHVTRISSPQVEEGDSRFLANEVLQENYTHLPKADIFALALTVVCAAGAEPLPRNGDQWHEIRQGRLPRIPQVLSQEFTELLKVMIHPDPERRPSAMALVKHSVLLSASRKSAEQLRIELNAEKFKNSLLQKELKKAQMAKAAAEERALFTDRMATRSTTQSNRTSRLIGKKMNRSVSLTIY

Structure (SMILES)	patients with partial response [1, 5] [%]	patients with stable disease as the best response [1, 5] [%]	response rate in patients with TP53 mutation ([1]; TP53 mutation (n=19)) [%]	response rate in TP53 wild-type patients ([1]; TP53 wild-type (n=33)) [%]	IC50 [2] [nM]	IC50 [3] [nM]	IC50 [4] [nM]
C=CCn1c(=O)c2cnc(Nc3ccc(N4CCN(C)CC4)cc3)nc2n1-c1cccc(C(C)(C)O)n1 [AZD1775]	10	53	21	12			
Cc1cc(Nc2ncc3c(n2)N2CCN=C2N(c2c(Cl)cccc2Cl)C3=O)ccc1N1C[C@@H](C)N[C@@H](C)C1 [Example 1, 6-(2,6-dichlorophenyl)-2-((4-((3S,5R)-3,5-dimethylpiperazin-1-yl)-3-methylphenyl)amino)-8,9-dihydroimidazo[1,2-a]pyrimido[5,4-e]pyrimidin-5(6H)-one]					126	71	37
[2H]C([2H])([2H])N1[C@H](C)CN(c2ccc(Nc3ncc4c(n3)N3CCN=C3N(c3c(Cl)cccc3Cl)C4=O)cc2C)C[C@@H]1C [Example 2, 6-(2,6-dichlorophenyl)-2-((4-((3S,5R)-3,5-dimethyl-4-(methyl-d3)piperazin-1-yl)-3-methylphenyl)amino)-8,9-dihydroimidazo[1,2-a]pyrimido[5,4-e]pyrimidin-5(6H)-one]					158	123	21
C[C@@H]1CN(c2ccc(Nc3ncc4c(n3)N3CCN=C3N(c3c(Cl)cccc3Cl)C4=O)cc2Br)C[C@H](C)N1C [Example 3, 2-((3-bromo-4-((3S,5R)-3,4,5-trimethylpiperazin-1-yl)phenyl)amino)-6-(2,6-dichlorophenyl)-8,9-dihydroimidazo[1,2-a]pyrimido[5,4-e]pyrimidin-5(6H)-one]					219	382	
Cc1cc(Nc2ncc3c(n2)N2CCN=C2N(c2c(Cl)cccc2Cl)C3=O)cc(F)c1N1C[C@@H](C)N(C)[C@@H](C)C1 [Example 5, 6-(2,6-dichlorophenyl)-2-((3-fluoro-5-methyl-4-((3S,5R)-3,4,5-trimethylpiperazin-1-yl)phenyl)amino)-8,9-dihydroimidazo[1,2-a]pyrimido[5,4-e]pyrimidin-5(6H)-one]					124	182	
Cc1cc(Nc2ncc3c(n2)N2CCN=C2N(c2c(Cl)cccc2Cl)C3=O)ccc1N1C[C@H](C)N(C)[C@@H](C)C1 [Example 8, 6-(2,6-dichlorophenyl)-2-((3-methyl-4-((3S,5S)-3,4,5-trimethylpiperazin-1-yl)phenyl)amino)-8,9-dihydroimidazo[1,2-a]pyrimido[5,4-e]pyrimidin-5(6H)-one]					163	214	30
Cc1cc(Nc2ncc3c(n2)N2CCN=C2N(c2c(Cl)cccc2Cl)C3=O)ccc1C1CCNCC1 [Example 9, 6-(2,6-dichlorophenyl)-2-((3-methyl-4-(piperidin-4-yl)phenyl)amino)-8,9-dihydroimidazo[1,2-a]pyrimido[5,4-e]pyrimidin-5(6H)-one]					533	940	23
Cc1cc(Nc2ncc3c(n2)N2CCN=C2N(c2c(Cl)cccc2Cl)C3=O)ccc1C1CCN(C)CC1 [Example 12, 6-(2,6-dichlorophenyl)-2-((3-methyl-4-(1-methylpiperidin-4-yl)phenyl)amino)-8,9-dihydroimidazo[1,2-a]pyrimido[5,4-e]pyrimidin-5(6H)-one]					78	79	23
Cc1cc(Nc2ncc3c(n2)N2CCN=C2N(c2c(Cl)cccc2Cl)C3=O)cc(F)c1C1CCN(C)CC1 [Example 13, 6-(2,6-dichlorophenyl)-2-((3-fluoro-5-methyl-4-(1-methylpiperidin-4-yl)phenyl)amino)-8,9-dihydroimidazo[1,2-a]pyrimido[5,4-e]pyrimidin-5(6H)-one]					73	85	26
